Source: patent US20240158446A1, “CYCLIC COMPOUND HAVING SELECTIVE INHIBITORY ACTION ON KRAS OVER HRAS AND NRAS” (CHUGAI SEIYAKU KABUSHIKI KAISHA, priority 2021, published 2024)
Where a SMILES comes first, the peptide text is derived from it. Bridges are numbered along the chain shown (N, C = ends). [ ]: non-standard residue; d: D form. The star is where a group is joined. hPhe(3-Cl-4-CF3) = N[C@@H](CCc1ccc(C(F)(F)F)c(Cl)c1)C(=O)O; NPrPhe(4-CF3) = CCCN[C@@H](Cc1ccc(C(F)(F)F)cc1)C(=O)O; NMeGly(cPent) = CN[C@H](C(=O)O)C1CCCC1; NMeD = CN[C@@H](CC(=O)O)C(=O)O; NMeL = CN[C@@H](CC(C)C)C(=O)O; Morpholide = C1CN(*)CCO1; Ac5c = NC1(C(=O)O)CCCC1; NEtG = CCNCC(=O)O; Sar = CNCC(=O)O

Experiments:
[1] = molecular target: GDP-bound KRAS wild-type protein (Homo sapiens, UniProt P01116); test: Binding to KRAS by surface plasmon resonance (SPR), Single Cycle Kinetics; details: SPR, Single Cycle Kinetics, GDP-bound KRAS wild-type protein; read-out: KRAS KD
[2] = molecular target: GDP-bound NRAS wild-type protein (Homo sapiens, UniProt P01111); test: Binding to NRAS by surface plasmon resonance (SPR), Single Cycle Kinetics; details: ratio of KD for GDP-bound NRAS wild-type protein to KD for KRAS, SPR
[3] = molecular target: GDP-bound HRAS wild-type protein (Homo sapiens, UniProt P01112); test: Binding to HRAS by surface plasmon resonance (SPR), Single Cycle Kinetics; details: ratio of KD for GDP-bound HRAS wild-type protein to KD for KRAS, SPR
[4] = tested on: human lung cancer strain NCI-H441; test: cells; details: NCI-H441, 96 h, read-out: NCI-H441 IC50 (nM), NCI-H441 cell proliferation, 4 days, CellTiter-Glo;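 further: cell proliferation inhibition after four days measured by CellTiter-Glo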

Sequence of GDP-bound KRAS wild-type protein (P01116 whole entry): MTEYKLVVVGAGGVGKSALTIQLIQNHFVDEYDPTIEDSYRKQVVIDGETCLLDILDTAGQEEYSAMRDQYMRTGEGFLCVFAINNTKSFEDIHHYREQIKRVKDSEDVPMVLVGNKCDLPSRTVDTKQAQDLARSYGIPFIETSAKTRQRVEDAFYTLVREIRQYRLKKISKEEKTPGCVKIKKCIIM
Sequence of GDP-bound NRAS wild-type protein (P01111 whole entry): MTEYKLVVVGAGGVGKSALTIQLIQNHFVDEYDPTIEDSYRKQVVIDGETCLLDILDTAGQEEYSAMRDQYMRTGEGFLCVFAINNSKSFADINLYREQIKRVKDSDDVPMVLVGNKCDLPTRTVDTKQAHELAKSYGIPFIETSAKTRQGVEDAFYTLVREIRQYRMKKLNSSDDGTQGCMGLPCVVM
Sequence of GDP-bound HRAS wild-type protein (P01112 whole entry): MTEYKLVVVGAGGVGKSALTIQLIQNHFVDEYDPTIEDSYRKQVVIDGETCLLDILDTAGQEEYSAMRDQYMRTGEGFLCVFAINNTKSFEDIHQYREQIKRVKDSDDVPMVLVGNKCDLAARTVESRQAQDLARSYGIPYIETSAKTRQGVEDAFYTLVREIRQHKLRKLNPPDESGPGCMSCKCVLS

Row | Compound | Kd [1] [nM] | NRAS/KRAS (KD ratio) [2] | HRAS/KRAS (KD ratio) [3] | IC50 [4] [nM]
1 | CCO[C@@H]1C[C@H]2C(=O)NC3(CC(C)(C)C3)C(=O)N(C)[C@@H](C3CCCC3)C(=O)N(C)[C@H](C(=O)N(C)C)CC(=O)N(C)[C@@H](CC3CCC3)C(=O)N[C@@H]([C@@H](C)CC)C(=O)N(C)CC(=O)N(C)[C@H]3C/C=C\CCN(C3=O)[C@@H](Cc3ccc(C(F)(F)F)cc3)C(=O)N(C)CC(=O)N[C@@H](CCc3cc(F)c(Cl)c(F)c3)C(=O)N2C1 [PP1762] | 0.26 | A (a compound having 10 or more and less than 20 is denoted as A) | A (a compound having 10 or more and less than 20 is denoted as A) | 8.4
2 | CCCN(C)C(=O)[C@@H]1CC(=O)N(C)[C@@H](COCC)C(=O)N[C@@H]([C@@H](C)CC)C(=O)N(C)CC(=O)N(C)[C@H]2C/C=C\CCN(C2=O)[C@@H](Cc2ccc(C(F)(F)F)cc2)C(=O)N(C)CC(=O)N[C@@H](CCc2ccc(C(F)(F)F)c(OC)c2)C(=O)N2C[C@H](OCC)C[C@H]2C(=O)NC2(CCC2)C(=O)N(C)[C@@H](C2CCCC2)C(=O)N1C [PP2015] | 0.11 | A (a compound having 10 or more and less than 20 is denoted as A) | B (a compound having 3 or more and less than 10 is denoted as B) | 5.6
3 | CCC[C@H]1C(=O)N[C@@H]([C@@H](C)CC)C(=O)N(C)CC(=O)N(C)[C@H]2C/C=C\CCN(C2=O)[C@@H](Cc2ccc(C(F)(F)F)cc2)C(=O)N(C)CC(=O)N[C@@H](CCc2ccc(Cl)c(Cl)c2)C(=O)N2C[C@H](OCC)C[C@H]2C(=O)NC2(CC(C)(C)C2)C(=O)N(C)[C@@H](C2CCCC2)C(=O)N(C)[C@H](C(=O)N(C)C)CC(=O)N1C [PP1932] | 0.15 | A (a compound having 10 or more and less than 20 is denoted as A) | A (a compound having 10 or more and less than 20 is denoted as A) | 13.1
4 | CCCN(C)C(=O)[C@@H]1CC(=O)N(C)[C@@H](COC)C(=O)N[C@@H]([C@@H](C)CC)C(=O)N(C)CC(=O)N(C)[C@H]2C/C=C\CCN(C2=O)[C@@H](Cc2ccc(C(F)(F)F)cc2)C(=O)N(C)CC(=O)N[C@@H](CCc2cc(F)c(C(F)(F)F)c(F)c2)C(=O)N2C[C@H](OCC)C[C@H]2C(=O)NC2(CCC2)C(=O)N(C)[C@@H](C2CCCC2)C(=O)N1C [PP1706] | 0.075 | A (a compound having 10 or more and less than 20 is denoted as A) | A (a compound having 10 or more and less than 20 is denoted as A) | 6.7
5 | CC[C@H](C)[C@@H]1NC(=O)[C@H](CC)N(C)C(=O)C[C@@H](C(=O)N(C)C)N(C)C(=O)[C@H](C2CCCC2)N(C)C(=O)C2(CC(C)(C)C2)NC(=O)[C@@H]2C[C@H](C)CN2C(=O)[C@H](CCc2cc(F)c(C(F)(F)F)c(F)c2)NC(=O)CN(C)C(=O)[C@H](Cc2ccc(C)cc2)N2CC/C=C\C[C@@H](C2=O)N(C)C(=O)CN(C)C1=O [PP1856] | 0.11 | A (a compound having 10 or more and less than 20 is denoted as A) | A (a compound having 10 or more and less than 20 is denoted as A) | 1.4
6 | CCO[C@@H]1C[C@H]2C(=O)NC3(CC(C)(C)C3)C(=O)N(C)[C@@H](C3CCCC3)C(=O)N(C)[C@H](C(=O)N(C)CC)CC(=O)N(C)[C@@H](CC(F)F)C(=O)N[C@@H]([C@@H](C)CC)C(=O)N(C)CC(=O)N(C)[C@H]3C/C=C\CCN(C3=O)[C@@H](Cc3ccc(C(F)(F)F)cc3)C(=O)N(C)CC(=O)N[C@@H](CCc3cc(F)c(C(F)(F)F)c(F)c3)C(=O)N2C1 [PP1643] | 0.055 | A (a compound having 10 or more and less than 20 is denoted as A) | A (a compound having 10 or more and less than 20 is denoted as A) | 1.6
7 | CCO[C@@H]1C[C@H]2C(=O)NC3(CC(C)(C)C3)C(=O)N(C)[C@@H](C3CCCC3)C(=O)N(C)[C@H](C(=O)N(C)C)CC(=O)N(C)[C@@H](CC3CC3)C(=O)N[C@@H]([C@@H](C)CC)C(=O)N(C)CC(=O)N(C)[C@H]3C/C=C\CCN(C3=O)[C@@H](Cc3ccc(C(F)(F)F)cc3)C(=O)N(C)CC(=O)N[C@@H](CCc3cc(F)c(Cl)c(F)c3)C(=O)N2C1 [PP1759] | 0.15 | A (a compound having 10 or more and less than 20 is denoted as A) | A (a compound having 10 or more and less than 20 is denoted as A) | 6.2
8 | CCO[C@@H]1C[C@H]2C(=O)N(C)C3(CCC3)C(=O)N(C)[C@@H](C3CCCC3)C(=O)N(C)[C@H](C(=O)N(C)C)CC(=O)N(C)[C@@H](C3CC3)C(=O)N[C@@H]([C@@H](C)CC)C(=O)N(C)CC(=O)N(C)[C@H]3C/C=C\CCN(C3=O)[C@@H](Cc3ccc(C)cc3)C(=O)N(C)CC(=O)N[C@@H](CCc3cc(F)c(C(F)(F)F)c(F)c3)C(=O)N2C1 [PP1783] | 0.028 | A (a compound having 10 or more and less than 20 is denoted as A) | B (a compound having 3 or more and less than 10 is denoted as B) | 3.5
9 | CC[C@H](C)[C@@H]1NC(=O)[C@H](COC)N(C)C(=O)C[C@@H](C(=O)N(C)C)N(C)C(=O)[C@H](C2CCCC2)N(C)C(=O)C2(CC(C)(C)C2)NC(=O)[C@@H]2CC(F)(F)CN2C(=O)[C@H](CCc2cc(F)c(C(F)(F)F)c(F)c2)NC(=O)CN(C)C(=O)[C@H](Cc2ccc(C(F)(F)F)cc2)N2CC/C=C\C[C@@H](C2=O)N(C)C(=O)CN(C)C1=O [PP1717] | 0.051 | A (a compound having 10 or more and less than 20 is denoted as A) | A (a compound having 10 or more and less than 20 is denoted as A) | 2.4
10 | CCO[C@@H]1C[C@H]2C(=O)NC3(CC(C)(C)C3)C(=O)N(C)[C@@H](C3CCCC3)C(=O)N(C)[C@H](C(=O)N(C)CC)CC(=O)N(C)[C@@H](COC)C(=O)N[C@@H]([C@@H](C)CC)C(=O)N(C)CC(=O)N(C)[C@H]3C/C=C\CCN(C3=O)[C@@H](Cc3ccc(C(F)(F)F)cc3)C(=O)N(C)CC(=O)N[C@@H](CCc3cc(F)c(C(F)(F)F)c(F)c3)C(=O)N2C1 [PP1671] | 0.077 | A (a compound having 10 or more and less than 20 is denoted as A) | A (a compound having 10 or more and less than 20 is denoted as A) | 3
11 | CC[C@H](C)[C@@H]1NC(=O)[C@H](CC)N(C)C(=O)C[C@@H](C(=O)N(C)C)N(C)C(=O)[C@H](C2CCCC2)N(C)C(=O)C2(CC(C)(C)C2)NC(=O)[C@H](CC)N(C)C(=O)[C@H](CCc2cc(F)c(C(F)(F)F)c(F)c2)NC(=O)CN(C)C(=O)[C@H](Cc2ccc(C(F)(F)F)cc2)N2CC/C=C\C[C@@H](C2=O)N(C)C(=O)CN(C)C1=O [PP1935] | 0.46 | A (a compound having 10 or more and less than 20 is denoted as A) | A (a compound having 10 or more and less than 20 is denoted as A) | 13.1
12 | CCO[C@@H]1C[C@H]2C(=O)NC3(CCC3)C(=O)N(C)[C@@H](C3CCCC3)C(=O)N(C)[C@H](C(=O)N(C)CC)CC(=O)N(C)[C@@H](C(C)C)C(=O)N[C@@H]([C@@H](C)CC)C(=O)N(C)CC(=O)N(C)[C@H]3C/C=C\CCN(C3=O)[C@@H](Cc3ccc(C(F)(F)F)cc3)C(=O)N(C)CC(=O)N[C@@H](CCc3cc(F)c(C(F)(F)F)c(F)c3)C(=O)N2C1 [PP1990] | 0.14 | A (a compound having 10 or more and less than 20 is denoted as A) | A (a compound having 10 or more and less than 20 is denoted as A) | 6.6
13 | CCCN1C(=O)CN(C)C(=O)CNC(=O)[C@H]([C@@H](C)CC)NC(=O)[C@H](CC(C)C)N(C)C(=O)C[C@@H](C(=O)N2CCOCC2)N(C)C(=O)[C@H](C2CCCC2)N(C)C(=O)C2(CCCC2)NC(=O)[C@@H]2CCCN2C(=O)[C@H](CCc2ccc(C(F)(F)F)c(Cl)c2)NC(=O)CN(CC)C(=O)[C@@H]1Cc1ccc(C(F)(F)F)cc1 [PP1969] ([NMeL]IG[Sar][NPrPhe(4-CF3)][NEtG][hPhe(3-Cl-4-CF3)]P[Ac5c][NMeGly(cPent)][NMeD]-Morpholide; lactam N-11) | 2.1 | B (a compound having 3 or more and less than 10 is denoted as B) | C (A compound having a KD ratio of 0.1 or more and less than 3 is denoted as C) | 74
14 | CCCN(C)C(=O)[C@@H]1CC(=O)N(C)[C@@H](COC)C(=O)N[C@@H]([C@@H](C)CC)C(=O)N(C)CC(=O)N(C)[C@H]2C/C=C\CCN(C2=O)[C@@H](Cc2ccc(C(F)(F)F)cc2)C(=O)N(C)CC(=O)N[C@@H](CCc2cc(F)c(C(F)(F)F)c(F)c2)C(=O)N2C[C@H](OCC)C[C@H]2C(=O)NC2(CC(F)(F)C2)C(=O)N(C)[C@@H](C2CCCC2)C(=O)N1C [PP1743] | 0.076 | AA (a compound having 20 or more is denoted as AA) | A (a compound having 10 or more and less than 20 is denoted as A) | 5.1
15 | CCCN(C)C(=O)[C@@H]1CC(=O)N(C)[C@@H](CC(F)F)C(=O)N[C@@H]([C@@H](C)CC)C(=O)N(C)CC(=O)N(C)[C@H]2C/C=C\CCN(C2=O)[C@@H](Cc2ccc(C(F)(F)F)cc2)C(=O)N(C)CC(=O)N[C@@H](CCc2ccc(C(F)(F)F)c(OC)c2)C(=O)N2C[C@H](OCC)C[C@H]2C(=O)NC2(CC(C)(C)C2)C(=O)N(C)[C@@H](C2CCCC2)C(=O)N1C [PP2010] | 0.14 | A (a compound having 10 or more and less than 20 is denoted as A) | B (a compound having 3 or more and less than 10 is denoted as B) | 6.6
